Assay [1] deals with T1, Y142A mutant mouse 5-HT3ASR (Mus musculus, UniProt P23979, Y143A).
T1 sequence (P23979 24-483 isoform P23979-2 Y143A): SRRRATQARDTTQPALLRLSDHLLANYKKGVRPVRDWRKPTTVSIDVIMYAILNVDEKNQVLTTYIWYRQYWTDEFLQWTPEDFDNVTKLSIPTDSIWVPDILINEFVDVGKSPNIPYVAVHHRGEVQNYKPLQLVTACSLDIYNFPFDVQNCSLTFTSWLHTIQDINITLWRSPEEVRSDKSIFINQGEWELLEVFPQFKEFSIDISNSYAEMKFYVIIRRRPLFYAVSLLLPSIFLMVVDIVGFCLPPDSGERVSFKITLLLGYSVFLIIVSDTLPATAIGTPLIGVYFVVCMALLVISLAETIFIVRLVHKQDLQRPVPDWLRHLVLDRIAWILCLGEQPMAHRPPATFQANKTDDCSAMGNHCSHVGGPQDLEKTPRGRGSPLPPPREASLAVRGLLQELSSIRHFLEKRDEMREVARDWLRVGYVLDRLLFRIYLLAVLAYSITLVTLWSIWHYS
Put plainly: Inhibition of [^3H]granisetron binding, Y142A receptor. To be noted: for relative increase in Ki, mutant vs wildtype: Y142A vs wildtype.

Assay [2] deals with T2, V141A mutant mouse 5-HT3ASR (Mus musculus, UniProt P23979, V142A).
T2 sequence (P23979 24-483 isoform P23979-2 V142A): T1 sequence (P23979 24-483 isoform P23979-2 Y143A) with V119A, A120Y
Put plainly: biochemical.

In assay [3] the target is T3, Y140A mutant mouse 5-HT3ASR (Mus musculus, UniProt P23979, Y141A).
T3 sequence (P23979 24-483 isoform P23979-2 Y141A): T1 sequence (P23979 24-483 isoform P23979-2 Y143A) with Y118A, A120Y
Put plainly: Inhibition of [^3H]granisetron binding, Y140A receptor. Particulars: for relative increase in Ki, mutant vs wildtype: Y140A vs wildtype.

Assay [4] addresses T4, Y152A mutant mouse 5-HT3ASR (Mus musculus, UniProt P23979, Y153A).
T4 sequence (P23979 24-483 isoform P23979-2 Y153A): T1 sequence (P23979 24-483 isoform P23979-2 Y143A) with A120Y, Y130A
Put plainly: Inhibition of [^3H]granisetron binding, Y152A receptor. To be noted: for relative increase in Ki, mutant vs wildtype: Y152A vs wildtype.

The target of assay [5] is T5, K153A mutant mouse 5-HT3ASR (Mus musculus, UniProt P23979, K154A).
T5 sequence (P23979 24-483 isoform P23979-2 K154A): T1 sequence (P23979 24-483 isoform P23979-2 Y143A) with A120Y, K131A
Put plainly: biochemical.

Assay [6] deals with T6, E148A mutant mouse 5-HT3ASR (Mus musculus, UniProt P23979, E149A).
T6 sequence (P23979 24-483 isoform P23979-2 E149A): T1 sequence (P23979 24-483 isoform P23979-2 Y143A) with A120Y, E126A
Put plainly: biochemical.

Structures are written as SMILES. Residue numbers refer to the chain shown, from its start. Where “and” joins values, the source holds several entries; their conditions need not be identical. Equal values may be shown once.

What is called Ki is the equilibrium dissociation constant of an inhibitor or competing ligand from its target. Read a high Ki as weaker binding.

`COc1cc2c3cc1Oc1cc(ccc1O)C[C@@H]1c4c(cc(OC)c(O)c4Oc4ccc(cc4)C[C@@H]3N(C)CC2)CC[N+]1(C)C` [d-tc, d-tubocurarine]: the Ki in assay [1] was determined as 39 ± 19 nM; in assay [2] it was 4.7 ± 0.87 nM; in assay [3], 300 ± 120 nM; in assay [4], 60 ± 19 nM; in assay [5] it was 17 ± 3 nM; in assay [6], 14 ± 1.7 nM. The “relative increase in Ki, mutant vs wildtype” value in assay [1] was 6.5 ± 1.5 fold and 6.5 fold; in assay [3] it was 50 ± 12 fold and 50 fold; in assay [4], 10.0 ± 2.3 fold and 10 fold.
As for `c1ccc(Cn2c(N3CCNCC3)nc3ccccc32)cc1` [lerisetron], the Ki turned out to be 130 ± 28 nM in assay [1]; 0.2 ± 0.02 nM in assay [2]; 2.1 ± 0.33 nM in assay [3]; 150 ± 36 nM in assay [4]; 3 ± 0.66 nM in assay [5]; 2.8 ± 0.53 nM in assay [6]. The “relative increase in Ki, mutant vs wildtype” value in assay [1] was 160 ± 37 fold and 160 fold; in assay [3], 4.6 fold; in assay [4], 190 ± 43 fold and 190 fold.

(Values after article PMC117120 (BMC Biochemistry, 2002).)
